The values below come from patent publication US20240409542A1, “NOVEL COMPOUNDS” (Sitryx Therapeutics Limited, priority 2021, published 2024).

Data set [1] in a line: Kinetic aqueous solubility. The conditions noted are these: kinetic from dmso stock, Kinetic solubility (Ksol), (μg/ml), PBS pH 7.4, 200 μM (2% DMSO), RT.
Description: Phosphate buffered saline (PBS) pH 7.4 was prepared using PBS tablets as per the manufacturer's instructions. Compounds and marker stocks are prepared at 10 mM in DMSO.
Compounds were incubated at 200 μM (2% DMSO) in Millipore—MSS LB PC 10 or Porvair—ref: 36004 plates in the presence of the prepared PBS pH 7.4 solution for 1.5 h, at RT, with gentle shaking. […] The samples were then analysed in a 96 well UV Star analysis plate on a plate reader from 220 nm to 500 nm at 10 nm increments.
The concentration of the samples was calculated against the standard curves.
A further data set concerns the target recombinant human PKM2 (Homo sapiens (Human), UniProt P14618). In words: Human PKM2 activation assay (Kinase-Glo Plus luminescence). In kind it is biochemical. The conditions noted are these: for pEC50: activation of recombinant human PKM2, 4-parameter logistic fit, read-out: hPKM2 EC50; for Emax: read-out: hPKM2 Emax (%). How it is done:
Compound activation of recombinant human PKM2 pyruvate kinase activity was determined by biochemical assay. N-terminal His-tagged hPKM2 was sourced from R&D Systems and its substrates phosphoenolpyruvate (PEP) and ADP from Sigma-Aldrich and 2BScientific Ltd, respectively. The Kinase-Glo® Plus luminescence assay was from Promega. All other reagents were from Sigma-Aldrich. Test Compounds were prepared as 10 mM DMSO stocks and dilution series prepared in DMSO for direct dilution into Assay Buffer comprising 50 mM imidazole, 50 mM KCl, 7 mM MgCl2, 0.01% Tween20, 0.05% BSA (pH 7.2).
Human PKM2 was diluted into Assay Buffer comprising 50 mM imidazole, 50 mM KCl, 7 mM MgCl2, 0.01% Tween20, 0.05% BSA (pH 7.2) to a final concentration of 5 pM. Enzyme-Assay Buffer mix was dispensed into a 384-well shallow-well white-walled plate (PerkinElmer) and Test Compounds added by acoustic dispense (Echo®, Labcyte Inc.).
After 60 minutes' incubation on an orbital shaker (300 rpm, 26° C.), enzyme activity was quantified by the luminescent detection of generated ATP. Kinase-Glo® Plus reagent was added to each well and the plates incubated for a further 15 minutes on an orbital shaker in the dark (300 rpm, 26° C.) before luminescence measurement on a plate reader (PHERAstar® FSX, BMG Labtech).
EC50 and Emax values were determined from 4-parameter logistic fits of compound concentration-response curves.

Setting [2] is: phosphate buffered saline (PBS) pH 7.4, pH 7.4, aqueous buffer.

SMILES strings stand for the structures. pEC50: −log10 of the molar value. In brackets after ≈: the same amount, converted by molar mass.

recombinant human PKM2, sequence (P14618 whole entry): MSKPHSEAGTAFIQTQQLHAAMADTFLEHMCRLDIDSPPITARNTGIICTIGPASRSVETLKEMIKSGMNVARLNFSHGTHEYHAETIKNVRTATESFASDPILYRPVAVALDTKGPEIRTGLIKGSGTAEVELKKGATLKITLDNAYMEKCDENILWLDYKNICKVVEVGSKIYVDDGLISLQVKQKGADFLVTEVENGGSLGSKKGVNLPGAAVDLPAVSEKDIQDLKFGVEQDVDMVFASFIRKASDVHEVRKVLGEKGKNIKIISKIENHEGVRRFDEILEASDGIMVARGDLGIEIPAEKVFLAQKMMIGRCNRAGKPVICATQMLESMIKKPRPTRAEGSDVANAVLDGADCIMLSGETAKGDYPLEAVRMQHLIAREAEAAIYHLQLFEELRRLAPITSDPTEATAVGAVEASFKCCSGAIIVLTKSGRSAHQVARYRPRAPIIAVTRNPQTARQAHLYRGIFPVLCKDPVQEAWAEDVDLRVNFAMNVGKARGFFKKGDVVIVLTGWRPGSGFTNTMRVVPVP

For orientation: solubility (kinetic) means solubility judged after dilution from a stock solution rather than from solid. As usually defined, the pEC50 is the EC50 on a negative log10 scale, so that one unit is a factor of ten. As a reminder, the Emax is the greatest response seen or fitted, relative to the assay's reference. For the molecule `Cn1c2c(c3cnn(Cc4cccc(S(C)(=O)=O)c4)c(=O)c31)CCN(S(C)(=O)=O)C2` [Example 31, 5-methyl-7-(methylsulfonyl)-3-(3-(methylsulfonyl)benzyl)-3,5,6,7,8,9-hexahydro-4H-pyrido[4′,3′:4,5]pyrrolo[2,3-d]pyridazin-4-one], in data set [1] (setting [2]), the solubility (kinetic) at 1.5 h was determined as 18.8 µg/mL (≈ 41.8 µM). Besides, on recombinant human PKM2, the negative-log EC50 (pEC50) is 6.37 and the Emax was found to be 75.3%.

Consider `COc1ccc(S(=O)(=O)N2CCc3c(n(C)c4c(=O)n(Cc5c[nH]c6cnccc56)ncc34)C2)cc1` [Example 35, 3-((1H-pyrrolo[2,3-c]pyridin-3-yl)methyl)-7-((4-methoxyphenyl)sulfonyl)-5-methyl-3,5,6,7,8,9-hexahydro-4H-pyrido[4′,3′:4,5]pyrrolo[2,3-d]pyridazin-4-one], for which, at recombinant human PKM2, the negative logarithm of the EC50 (pEC50) is 6.24 and the Emax worked out at 78.1%.

In data set [1] (setting [2]), `Cn1c2c(c3cnn(Cc4cccc(S(N)(=O)=O)c4)c(=O)c31)CCN(S(C)(=O)=O)C2` [Example 18, 3-((5-methyl-7-(methylsulfonyl)-4-oxo-4,5,6,7,8,9-hexahydro-3H-pyrido [4′,3′:4,5]pyrrolo[2,3-d]pyridazin-3-yl)methyl)benzenesulfonamide] showed a solubility (kinetic) at 1.5 h of 18.3 µg/mL (≈ 40.5 µM). In addition, at recombinant human PKM2, the pEC50 was 6.40 and the Emax amounted to 58.7%.

Take `Cn1c2c(c3cnn(Cc4cccc(C(C)(C)O)c4)c(=O)c31)CCN(S(C)(=O)=O)C2` [Example 33, 3-(3-(2-hydroxypropan-2-yl)benzyl)-5-methyl-7-(methylsulfonyl)-3,5,6,7,8,9-hexahydro-4H-pyrido[4′,3′:4,5]pyrrolo[2,3-d]pyridazin-4-one]: in data set [1] (setting [2]), the solubility (kinetic) at 1.5 h was determined as 19.8 µg/mL (≈ 46 µM). Moreover, the Emax on recombinant human PKM2 turned out to be 96.5%.

In the case of `Cn1c2c(c3cnn(Cc4c[nH]c5ccc(F)cc45)c(=O)c31)CCN(S(C)(=O)=O)C2` [Example 38, 3-((5-fluoro-1H-indol-3-yl)methyl)-5-methyl-7-(methylsulfonyl)-6,7,8,9-tetrahydro-3H-pyrido[4′,3′:4,5]pyrrolo[2,3-d]pyridazin-4(5H)-one], on recombinant human PKM2, the negative logarithm of the EC50 (pEC50) was 6.12 and the maximum response (Emax) was determined as 93.2%.

In turn, `Cn1c2c(c3cnn(Cc4csc5ccncc45)c(=O)c31)CCN(S(C)(=O)=O)C2` [Example 34, 5-methyl-7-(methylsulfonyl)-3-(thieno[3,2-c]pyridin-3-ylmethyl)-3,5,6,7,8,9-hexahydro-4H-pyrido[4′,3′:4,5]pyrrolo[2,3-d]pyridazin-4-one] gave a solubility (kinetic) at 1.5 h in data set [1] (setting [2]) of 1.8 µg/mL (≈ 4.19 µM). Also, at recombinant human PKM2, the pEC50 was 6.36 and the Emax came to 82.6%.

As for `Cn1c2c(c3cnn(Cc4n[nH]cc4C(N)=O)c(=O)c31)CCN(S(C)(=O)=O)C2` [Example 17, 3-((5-methyl-7-(methylsulfonyl)-4-oxo-4,5,6,7,8,9-hexahydro-3H-pyrido [4′,3′:4,5]pyrrolo[2,3-d]pyridazin-3-yl)methyl)-1H-pyrazole-4-carboxamide], the solubility (kinetic) at 1.5 h in data set [1] (setting [2]) was 73.1 µg/mL (≈ 180 µM). On recombinant human PKM2, the pEC50 is 6.05 and the Emax worked out at 98.8%.

In data set [1] (setting [2]), `Cn1c2c(c3cnn(Cc4ccsc4CO)c(=O)c31)CCN(S(C)(=O)=O)C2` [Example 13, 3-((2-(hydroxymethyl)thiophen-3-yl)methyl)-5-methyl-7-(methylsulfonyl)-3,5,6,7,8,9-hexahydro-4H-pyrido[4′,3′:4,5]pyrrolo[2,3-d]pyridazin-4-one] came in with a solubility (kinetic) at 1.5 h of 38 µg/mL (≈ 92.9 µM). At recombinant human PKM2, the pEC50 is 6.15 and the maximum response (Emax) was 88.5%.

As to `COCCS(=O)(=O)N1CCc2c(n(C)c3c(=O)n(Cc4c[nH]c5cnccc45)ncc23)C1` [Example 29, 3-((1H-pyrrolo[2,3-c]pyridin-3-yl)methyl)-7-((2-methoxyethyl)sulfonyl)-5-methyl-6,7,8,9-tetrahydro-3H-pyrido[4′,3′:4,5]pyrrolo[2,3-d]pyridazin-4(5H)-one], the solubility (kinetic) at 1.5 h in data set [1] (phosphate buffered saline, pH 7.4, aqueous buffer) was 37.5 µg/mL (≈ 82 µM). For the same molecule, at recombinant human PKM2, the pEC50 was 6.55 and the Emax turned out to be 89%.

In the case of `COc1ccc(Cn2ncc3c4c(n(C)c3c2=O)CN(S(=O)(=O)c2ccccc2)CC4)c(F)c1` [Example 21, 3-(2-fluoro-4-methoxybenzyl)-5-methyl-7-(phenylsulfonyl)-3,5,6,7,8,9-hexahydro-4H-pyrido[4′,3′:4,5]pyrrolo[2,3-d]pyridazin-4-one], the solubility (kinetic) at 1.5 h in data set [1] (setting [2]) came out at 1.04 µg/mL (≈ 2.16 µM). Also, at recombinant human PKM2, the negative logarithm of the EC50 (pEC50) is 6.01 and the Emax was 71.4%.

For the molecule `Cn1c2c(c3cnn(Cc4c[nH]c5ccccc45)c(=O)c31)CCN(S(C)(=O)=O)C2` [Example 15, 3-((1H-indol-3-yl)methyl)-5-methyl-7-(methylsulfonyl)-3,5,6,7,8,9-hexahydro-4H-pyrido[4′,3′:4,5]pyrrolo[2,3-d]pyridazin-4-one], the kinetic solubility at 1.5 h in data set [1] (setting [2]) came out at 2.49 µg/mL (≈ 6.05 µM). On recombinant human PKM2, the pEC50 was 7.00 and the Emax stood at 99.9%.

Consider `COCCNS(=O)(=O)N1CCc2c(n(C)c3c(=O)n(Cc4ccc(OC)nc4)ncc23)C1` [Example 28, N-(2-methoxyethyl)-3-((6-methoxypyridin-3-yl)methyl)-5-methyl-4-oxo-3,4,5,6,8,9-hexahydro-7H-pyrido[4′,3′:4,5]pyrrolo[2,3-d]pyridazine-7-sulfonamide], for which the kinetic solubility at 1.5 h in data set [1] (setting [2]) is above 92.5 µg/mL. Also, at recombinant human PKM2, the pEC50 was 6.41 and the Emax was determined as 56.4%.

`Cn1c2cc([S+](C)[O-])sc2c2cnn(Cc3cccc(N)c3)c(=O)c21` (centres unmarked) [TEPP-46, reference compound]: in data set [1] (setting [2]), the solubility (kinetic) at 1.5 h was found to be 0.15 µg/mL (≈ 0.403 µM). Further, the Emax on recombinant human PKM2 stood at 113%.

On to `Cn1c2c(c3cnn(Cc4ccc5c(c4)CC(C)(C)O5)c(=O)c31)CCN(S(C)(=O)=O)C2` [Example 24, 3-((2,2-dimethyl-2,3-dihydrobenzofuran-5-yl)methyl)-5-methyl-7-(methylsulfonyl)-3,5,6,7,8,9-hexahydro-4H-pyrido[4′,3′:4,5]pyrrolo[2,3-d]pyridazin-4-one], for which, at recombinant human PKM2, the pEC50 is 6.73 and the maximum response (Emax) is 90.9%.

In the case of `Cn1c2c(c3cnn(Cc4c[nH]c5cc(F)ccc45)c(=O)c31)CCN(S(C)(=O)=O)C2` [Example 39, 3-((6-fluoro-1H-indol-3-yl)methyl)-5-methyl-7-(methylsulfonyl)-6,7,8,9-tetrahydro-3H-pyrido[4′,3′:4,5]pyrrolo[2,3-d]pyridazin-4(5H)-one], the solubility (kinetic) at 1.5 h in data set [1] (setting [2]) is 1.09 µg/mL (≈ 2.54 µM). For the same molecule, on recombinant human PKM2, the pEC50 is 6.66 and the Emax was determined as 92.7%.

Turning to `COc1ccc(S(=O)(=O)N2CCc3c(n(C)c4c(=O)n(Cc5ccsc5C(N)=O)ncc34)C2)cc1` [Example 22, 3-((7-((4-methoxyphenyl)sulfonyl)-5-methyl-4-oxo-4,5,6,7,8,9-hexahydro-3H-pyrido[4′,3′:4,5]pyrrolo[2,3-d]pyridazin-3-yl)methyl)thiophene-2-carboxamide], in data set [1] (setting [2]), the solubility (kinetic) at 1.5 h stood at 2.53 µg/mL (≈ 4.93 µM). At recombinant human PKM2, the pEC50 is 6.41 and the maximal effect (Emax) was found to be 76.8%.

Regarding `COc1ccc(S(=O)(=O)N2CCc3c(n(C)c4c(=O)n(Cc5ccc6c(c5)CCO6)ncc34)C2)cc1` [Example 23, 3-((2,3-dihydrobenzofuran-5-yl)methyl)-7-((4-methoxyphenyl)sulfonyl)-5-methyl-3,5,6,7,8,9-hexahydro-4H-pyrido[4′,3′:4,5]pyrrolo[2,3-d]pyridazin-4-one], on recombinant human PKM2, the pEC50 was 6.50 and the Emax was found to be 58.3%.

In data set [1] (setting [2]), `Cn1c2c(c3cnn(Cc4ccc5cc[nH]c5n4)c(=O)c31)CCN(S(C)(=O)=O)C2` [Example 25, 3-((1H-pyrrolo[2,3-b]pyridin-6-yl)methyl)-5-methyl-7-(methylsulfonyl)-3,5,6,7,8,9-hexahydro-4H-pyrido[4′,3′:4,5]pyrrolo[2,3-d]pyridazin-4-one] had a kinetic solubility at 1.5 h of 3.94 µg/mL (≈ 9.55 µM). Also, at recombinant human PKM2, the pEC50 is 6.47 and the Emax was found to be 99.5%.

Turning to `COCCS(=O)(=O)N1CCc2c(n(C)c3c(=O)n(Cc4ccc(OC)nc4)ncc23)C1` [Example 27, 7-((2-methoxyethyl)sulfonyl)-3-((6-methoxypyridin-3-yl)methyl)-5-methyl-3,5,6,7,8,9-hexahydro-4H-pyrido[4′,3′:4,5]pyrrolo[2,3-d]pyridazin-4-one], on recombinant human PKM2, the negative-log EC50 (pEC50) is 6.04 and the Emax stood at 78%.

Regarding `Cn1c2c(c3cnn(Cc4coc5ccccc45)c(=O)c31)CCN(S(C)(=O)=O)C2` [Example 16, 3-(benzofuran-3-ylmethyl)-5-methyl-7-(methylsulfonyl)-3,5,6,7,8,9-hexahydro-4H-pyrido[4′,3′:4,5]pyrrolo[2,3-d]pyridazin-4-one], the kinetic solubility at 1.5 h in data set [1] (setting [2]) stood at 7.58 µg/mL (≈ 18.4 µM). Besides, at recombinant human PKM2, the pEC50 was 6.89 and the Emax is 76.6%.

The molecule `C[C@H](N)c1cccc(Cn2ncc3c4c(n(C)c3c2=O)CN(S(C)(=O)=O)CC4)c1` [Example 26, (S)-3-(3-(1-aminoethyl)benzyl)-5-methyl-7-(methylsulfonyl)-3,5,6,7,8,9-hexahydro-4H-pyrido[4′,3′:4,5]pyrrolo[2,3-d]pyridazin-4-one] displayed a kinetic solubility at 1.5 h in data set [1] (setting [2]) above 83 µg/mL. In addition, on recombinant human PKM2, the pEC50 is 6.43 and the Emax was 81.1%.
